Data on two compounds can be found in patent publication US20200038419A1, “METHODS OF TREATING MULTIPLE SYSTEM ATROPHY USING AMINOSTEROL COMPOSITIONS” (Enterin, Inc., priority 2018, published 2020).

For one series, the system named is mouse models of PD. The settings on record: oral; mice with constipation due to overexpression of human αS (West et al, manuscript in preparation); cited from earlier work.
Series [1] deals with IPANs (intrinsic primary afferent neuron). The following applies: isolated bowel segment, PD mouse model, luminal perfusion; cited from earlier work.
Series [2] can be described thus: Pharmacokinetics of orally administered squalamine (ENT-01) in Stage 1. The class given is in vivo. The settings on record: human, this study. As for the experimental part:
PK data were collected on the 10 patients enrolled in Stage 1 and 10 patients enrolled in Stage 2 to determine the extent of systemic absorption. In Stage 1, PK data were obtained at each visit, pre-medication, at 1, 2, 4, 8 and 24 hours (Table 10). In Stage 2, PK was measured on days 1 and 6 of the randomization period pre-medication, at 1, 2, 4 and 8 hours (Table 11).
The mean Cmax, Tmax and T1/2 and AUC of the squalamine ion following squalamine (ENT-01) oral dosing for Stage 1 patients. The PK analyses are only approximate, as the lower limit of the validated concentration range was 10 ng/ml; most of the measured concentrations fell below that value. The mean Cmax, Tmax and T1/2 and AUC of the squalamine ion following squalamine (ENT-01) oral dosing for Stage 2 patients. The PK analyses are only approximate, as the lower limit of the validated concentration range was 0.5 ng/ml.

For series [3] the following is noted: following systemic administration, in mice; cited from earlier work.
Series [4] deals with patients with PD. As to the kind of experiment: Circadian rhythm of wrist skin temperature. The series is classed as in vivo, human. The settings on record: for circadian rhythm of wrist skin temperature (IS, IV, RA, CFI): fixed dose vs baseline, 12 evaluable patients. As for the experimental part: (6) I-Button Temperature Assessment. The I-Button is a small, rugged self-sufficient system that measures temperature and records the results in a protected memory section. The Thermochron I-Button DS1921H (Maxim Integrated, Dallas, Tex.) was used for skin temperature measurement. I-Buttons were programmed to sample every 10 mins., and attached to a double-sided cotton sport wrist band using Velcro, with the sensor face of the I-Button placed over the inside of the wrist, on the radial artery of the dominant hand. Subjects removed and replaced the data logger when necessary (i.e., to have a bath or shower). The value of skin temperature assessment in sleep research is that the endogenous skin warming resulting from increased skin blood flow is functionally linked to sleep propensity. From the collected data, the mesor, amplitude, acrophase (time of peak temperature), Rayleight test (an index of interdaily stability), mean waveforms are calculated.);
Circadian rhythm of skin temperature was evaluable in 12 patients (i.e., those who had recordings that extended from baseline through washout). Circadian system functionality was evaluated by continuously monitoring wrist skin temperature using a temperature sensor (Thermochron iButton DS1921H; Maxim, Dallas, Tex.) (Sarabia et al. 2008). A nonparametric analysis was performed for each participant to characterize DST as previously described (Sarabia et al. 2008; Ortiz-Tudela et al. 2010).
Briefly, this analysis includes the following parameters: (i) the inter-daily stability (the constancy of 24-hour rhythmic pattern over days, IS); (ii) intra-daily variability (rhythm fragmentation, IV); (iii) average of 10-minute intervals for the 10 hours with the minimum temperature (L10); (iv) average of 10-minute intervals for the 5 hours with the maximum temperature (M5) and the relative amplitude (RA), which was determined by the difference between M5 and L10, divided by the sum of both. Finally, the Circadian Function Index (CFI) was calculated by integrating IS, IV, and RA. […]

The test system of series [5] is patients with PD and constipation. As to the kind of experiment: Adverse events, Stage 1. The series is classed as in vivo, human. The settings on record: Stage 1, 10 dosed. From the text:
Tolerability limits included diarrhea or vomiting.

For series [6] the test system is unchanged. Put plainly: Phase 2 trial Stage 2 (daily dosing): bowel function, stool related indices. The class given is in vivo, human. As for the experimental part:
(§1) In Stage 2, 34 patients were evaluated.
The primary efficacy outcome variable was whether or not a subject was a “success” or “failure”. This is an endpoint based on subject diary entries for the “fixed dose” period prior to the endpoint assessment defined as average complete stool frequency increase by 1 or more over baseline, or 3 or more complete spontaneous stools/week. The subject was deemed a “success” if s/he met one or more of the criteria listed above, otherwise the subject was deemed a “failure”. The primary analysis was based on all subjects with a baseline assessment and an assessment at the end of the “fixed-dose” period and was a comparison of the proportion of successes with 0.10 (the null hypothesis corresponding to no treatment effect).

Series [7] concerns patients with PD. Put plainly: CNS / neurological symptoms in Stage 2 (UPDRS, MMSE, PDHQ, BDI-II). The series is classed as in vivo, human. The settings on record: during treatment; patients with hallucinations (5) or delusions (1) at baseline. An excerpt: Exploratory end-points, in addition to constipation, included for example, (i) depression assessed using the Beck Depression Inventory (BDI-II) (Steer et al. 2000) and Unified Parkinson's Disease Rating Scale (UPDRS); (ii) cognition assessed using the Mini Mental State Examination (MMSE) (Palsteia et al. 2018), Unified Parkinson's Disease Rating Scale (UPDRS), and Trail Making Test (TMT); (iii) sleep and REM-behavior disorder (RBD) using a daily sleep diary, I-Button Temperature Assessment, a REM sleep behavior disorder (RBD) questionnaire (RBDQ) (Stiasny-Kolster et al. 2007), and the UPDRS; (iv) hallucinations assessed using the PD hallucinations questionnaire (PDHQ) (Papapetropoulos et al. 2008), the UPDRS, and direct questioning; (v) fatigue using the Parkinson's Disease Fatigue Scale (PFS-16) and the UPDRS; (vi) motor functions using the UPDRS; and (vii) non-motor functions using the UPDRS.
Assessments were made at baseline and at the end of the fixed dose and washout periods. Circadian system status was evaluated by continuously monitoring wrist skin temperature (Thermochron iButton DS1921H; Maxim, Dallas) following published procedures (Sarabia et al. 2008). […]
CNS symptoms were evaluated at baseline and at the end of the fixed dose period and the wash-out period (Table 12). […]

In series [8] the test system is patients with PD and constipation. Put plainly: Adverse events, Stage 2. The class given is in vivo, human. The settings on record: Stage 2, number of patients. How it is done: as §1

Take `CC(C)[C@@H](CC[C@@H](C)[C@H]1CC[C@H]2[C@@H]3[C@H](O)C[C@H]4C[C@@H](NCCCNCCCCN)CC[C@]4(C)[C@H]3CC[C@]12C)OS(=O)(=O)O` [squalamine]: the gastro-intestinal motility result with mouse models of PD is “stimulates gastro-intestinal motility”. Also, in series [1], the “effect on IPANs” value is recorded as “excitation of IPANs”. The “systemic absorption following oral administration” value in series [2] is on record as “not significantly absorbed into the systemic circulation”. The clearance and excretion result in [3] was “cleared by the liver and excreted as the intact molecule”.
With `CC(C)[C@@H](CC[C@@H](C)[C@H]1CC[C@H]2[C@@H]3[C@H](O)C[C@H]4C[C@@H](NCCCNCCCCN)CC[C@]4(C)[C@H]3CC[C@]12C)OS(=O)(=O)O` (single isomer, unassigned) [squalamine (ENT-01), squalamine], in the series on patients with PD [4], the “circadian rhythm of wrist skin temperature (IS, IV, RA, CFI)” value is “significant positive impact”. Besides, the “circadian rhythm of wrist skin temperature (IS, IV, RA, CFI)” value in the series with patients with PD [4] (listed as ENT-01) is “improved all markers of healthy circadian function”. For the same compound, in the series on patients with PD [4] (wash-out period vs baseline), the “circadian rhythm parameters (IS, CFI)” value is “improvement persisted for several of these circadian parameters”. Besides, in [5], the “Abdominal pain, Mild” value was 2 (20) n; the “Abdominal pain, Moderate” value was 3 (30) n; the “Blood in urine, Moderate” value is given as 0 n; the “Diarrhea, Mild” value was 1 (10) n. For the same compound, in [5], the “Diarrhea, Moderate” value is 3 (30) n; the “Diarrhea, Severe” value turned out to be 0 n; the “Difficulty falling asleep, Mild” value is 0 n; the “Difficulty falling asleep, Moderate” value turned out to be 0 n. In [5], the “Dizziness, Mild” value worked out at 0 n; the “Dizziness, Moderate” value is reported as 0 n; the “Eye infection, Mild” value worked out at 0 n; the “Eye infection, Moderate” value is on record as 0 n. Also, in [5], the “Flatulence, Mild” value is 2 (20) n; the “Flatulence, Moderate” value amounted to 0 n; the “Headache, Mild” value was 1 (10) n; the “Headache, Moderate” value is 0 n. In [5], the “Increased urinary frequency, Mild” value amounted to 0 n; the “Increased urinary frequency, Moderate” value came to 0 n; the “Loss of appetite, Moderate” value turned out to be 0 n; the “Lower GI bleed, Severe” value was 0 n. Further, in series [5], the “Nausea, Mild” value is on record as 4 (40) n; the “Nausea, Moderate” value amounted to 0 n; the “Skin lesions-rash, Mild” value turned out to be 0 n; the “Skin lesions-rash, Moderate” value worked out at 0 n. For the same compound, in series [5], the “Urinary retention, Mild” value is recorded as 0 n; the “Urinary retention, Moderate” value turned out to be 0 n; the “Urinary tract infection, Mild” value was 0 n; the “Urinary tract infection, Moderate” value was found to be 0 n. Also, in [5], the “Vomiting, Mild” value is recorded as 1 (10) n; the “Vomiting, Moderate” value is recorded as 0 n; the “Worsening acid reflux, Mild” value is recorded as 0 n; the “Worsening acid reflux, Moderate” value is on record as 0 n. Moreover, in [5], the “Worsening hemorrhoid, Mild” value was determined as 0 n and the “Worsening hemorrhoid, Moderate” value is 0 n. Also, in [5] (unrelated to ENT-01), the “Blood in urine, Mild” value was 1 (10) n and the “Loss of appetite, Mild” value was 1 (10) n. Besides, in [6] (Stage 2, daily dosing, at 250 mg (range 75-250 mg)), the “response rate (CSBM within 24 hours of dosing on at least 2 of 3 days)” value is reported as 85%. Further, in series [6] (Stage 2, fixed dose, mean (SD), n = 34, baseline 2.6 (1.45)), the “SBM, weekly average” value is listed as 4.5 (2.21) /week. For the same compound, the “patients in whom hallucinations and delusions improved or disappeared” value in the series on patients with PD [7] is reported as 5 of 6. Moreover, the “patients who withdrew during dosing because of diarrhea” value in series [8] is given as 2.
